Test results published in patent US6245817A, “NPY5 receptor antagonists and methods for using same” (Bayer Corporation, priority 1999, dated 2001).
One block for each molecule: values may come before it.

What was measured:
Human NPY2 receptor = target: T1, Human NPY2 receptor (Homo sapiens, UniProt P49146); assay: Human NPY2 Receptor Binding Assay; conditions: [125I]PYY; read-out: hPPY2 IC50
T1 sequence (P49146 1-381): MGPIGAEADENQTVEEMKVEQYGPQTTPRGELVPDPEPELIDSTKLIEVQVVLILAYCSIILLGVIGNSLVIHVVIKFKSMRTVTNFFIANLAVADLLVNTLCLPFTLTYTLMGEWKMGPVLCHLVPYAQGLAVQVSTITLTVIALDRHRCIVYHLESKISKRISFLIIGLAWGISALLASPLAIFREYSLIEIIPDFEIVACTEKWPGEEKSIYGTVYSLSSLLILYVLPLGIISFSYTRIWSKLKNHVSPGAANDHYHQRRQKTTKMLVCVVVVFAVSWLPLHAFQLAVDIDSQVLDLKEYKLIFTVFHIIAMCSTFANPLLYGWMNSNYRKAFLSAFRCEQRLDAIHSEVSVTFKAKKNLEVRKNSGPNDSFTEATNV
Description: Binding assays were performed on GF/C Millipore 96-well plates pretreated with 0.02% polyethylenimine. The binding buffer for rat Y2 binding is Krebs-Ringer bicarbonate (pH 7.4) containing 0.01% BSA and 0.005% bacitracin. Samples consist of membrane protein, 25 pM [125I]PYY and drug dilution. Nonspecific binding is defined by 1 μpM NPY.
After a 2 hour incubation at room temperature with constant mixing, the samples are aspirated on a vacuum manifold, and rinsed with ice-cold binding buffer. The amount of radioactivity in each well is quantitated with either gamma counting or liquid scintillation.

Human NPY5 Receptor = target: T2, Human NPY5 Receptor (Homo sapiens, UniProt Q15761); assay: Human NPY5 Receptor Binding Assay; conditions: [125I]PYY; read-out: hNPY5 IC50
T2 sequence (Q15761 1-445): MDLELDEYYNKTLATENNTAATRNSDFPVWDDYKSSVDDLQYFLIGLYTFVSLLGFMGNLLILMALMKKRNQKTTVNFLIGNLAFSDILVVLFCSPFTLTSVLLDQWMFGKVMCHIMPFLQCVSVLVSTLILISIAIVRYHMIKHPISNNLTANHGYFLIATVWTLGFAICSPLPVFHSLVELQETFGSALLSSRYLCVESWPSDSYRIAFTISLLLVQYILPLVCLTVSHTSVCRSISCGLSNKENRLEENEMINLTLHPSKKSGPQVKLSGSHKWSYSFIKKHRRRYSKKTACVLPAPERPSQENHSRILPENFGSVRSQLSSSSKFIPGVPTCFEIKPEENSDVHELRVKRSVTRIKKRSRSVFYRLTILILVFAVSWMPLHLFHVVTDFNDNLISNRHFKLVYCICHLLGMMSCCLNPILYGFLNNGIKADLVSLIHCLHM
Description: Human and Rat NPY5 Receptor Binding Assays
Binding assays are performed on GF/C Millipore 96-well plates pretreated with 0.02% polyethylenimine. The binding buffer is 25 mM Tris, 120 mM NaCl, 5 mM KCl, 1.2 mM KH2 PO4, 2.5 mM CaCl2, 1.2 mM MgSO4, 0.1% BSA and 0.5 mg/ml bacitracin, pH 7.4. Samples consist of membrane protein, 75-100 pM [125I]PYY (porcine, NEN-DuPont) and drug dilution. Nonspecific binding is defined by 1 μM PYY. After a 2 hour incubation at room temperature with constant mixing, the samples are aspirated on a vacuum manifold, and rinsed with ice-cold binding buffer. The amount of radioactivity in each well is quantitated with either gamma counting or liquid scintillation. IC50 values, which correspond to 50% inhibition of specific binding, are determined with non-linear regression analysis.

Rat NPY5 Receptor = target: T3, Rat NPY5 Receptor (Rattus norvegicus, UniProt Q63634); assay: Rat NPY5 Receptor Binding Assay; conditions: 10 μM, values marked *; read-out: rNPY5 percent inhibition at 10 μM
T3 sequence (Q63634 1-445): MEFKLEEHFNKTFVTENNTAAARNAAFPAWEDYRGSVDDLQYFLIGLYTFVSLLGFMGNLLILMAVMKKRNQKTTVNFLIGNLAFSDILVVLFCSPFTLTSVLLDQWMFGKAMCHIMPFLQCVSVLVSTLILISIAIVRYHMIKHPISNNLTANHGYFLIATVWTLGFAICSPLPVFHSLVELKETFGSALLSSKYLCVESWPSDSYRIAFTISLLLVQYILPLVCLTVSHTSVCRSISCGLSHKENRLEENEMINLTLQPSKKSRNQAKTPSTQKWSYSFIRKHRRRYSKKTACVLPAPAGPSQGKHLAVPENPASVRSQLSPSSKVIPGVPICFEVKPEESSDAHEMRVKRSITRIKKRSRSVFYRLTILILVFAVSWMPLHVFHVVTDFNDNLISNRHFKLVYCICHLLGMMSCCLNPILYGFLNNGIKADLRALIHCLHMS

IC50 (Human NPY2 receptor): > 5 µM
IC50 (Human NPY5 Receptor): 0.5 µM
inhibition at 10 µM (Rat NPY5 Receptor): 95%
SMILES: O=C(CSc1nc2ccccc2[nH]1)Nc1ccc(C2CCCCC2)cc1 [Compound 11, 2-(1H-Benzoimidazol-2-ylsulfanyl)-N-(4-cyclohexyl-phenyl)-acetamide]

IC50 (Human NPY2 receptor): > 5 µM
IC50 (Human NPY5 Receptor): 5.6 µM
inhibition at 10 µM (Rat NPY5 Receptor): 71%
SMILES: Nc1nc(O)c2[nH]c(SCC(=O)Nc3ccc(C4CCCCC4)cc3)nc2n1 [Compound 13, 2-(2-Amino-hydroxy-9H-purin-8-ylsuIfanyl)-N-(4-yclohexyl-phenyl)-acetamide]

IC50 (Human NPY2 receptor): > 5 µM
IC50 (Human NPY5 Receptor): > 10 µM
inhibition at 10 µM (Rat NPY5 Receptor): 51%
SMILES: Nc1nc(O)c2[nH]c(SCC(=O)Nc3ccc(C(=O)c4ccccc4)cc3)nc2n1 [Compound 14, 2-(2-Amino-hydroxy-9H-purin-ylsulfanyl)-N-(4-benzoyl-phenyl)-acetamide]

IC50 (Human NPY2 receptor): > 5 µM
IC50 (Human NPY5 Receptor): 9.8 µM
inhibition at 10 µM (Rat NPY5 Receptor): 66%
SMILES: O=C(CSc1nc(-c2ccccc2)c(-c2ccccc2)[nH]1)Nc1ccc(C2CCCCC2)cc1 [Compound 15, N-(4-Cyclohexyl-phenyl)-2-(4,5-diphenyl-1H-imidazol-2-ylsulfanyl)-acetamide]

IC50 (Human NPY2 receptor): > 5 µM
IC50 (Human NPY5 Receptor): 1.3 µM
SMILES: O=C(CSc1ncnc2[nH]ncc12)Nc1ccc(C(=O)c2ccccc2)cc1 [Compound 43, N-(4-Benzoyl-phenyl)-2-(1H-pyrazolo[3,4-d]pyrimidin-4-ylsulfanyl)-acetamide]

IC50 (Human NPY2 receptor): > 5 µM
IC50 (Human NPY5 Receptor): 0.053 µM
SMILES: O=C(CSc1ccncc1)Nc1ccc(C2CCCCC2)cc1 [Compound 50, N-(-clohexyl-phenyl)-2-(pyridin-4-ylsulfanyl)-acetamide]

IC50 (Human NPY2 receptor): > 5 µM
IC50 (Human NPY5 Receptor): 0.73 µM
SMILES: O=C(CSc1nnnn1-c1ccccc1)Nc1ccc(C2CCCCC2)cc1 [Compound 52]

IC50 (Human NPY2 receptor): > 5 µM
IC50 (Human NPY5 Receptor): 0.21 µM
SMILES: O=C(CSc1ccc(F)cc1)Nc1ccc(C2CCCCC2)cc1 [Compound 53]

IC50 (Human NPY2 receptor): > 5 µM
IC50 (Human NPY5 Receptor): 2 µM
SMILES: CC(=O)Nc1ccc(SCC(=O)Nc2ccc(C3CCCCC3)cc2)cc1 [Compound 54]

IC50 (Human NPY2 receptor): > 5 µM
IC50 (Human NPY5 Receptor): 1.7 µM
SMILES: O=C(CSc1ccc(O)cc1)Nc1ccc(C2CCCCC2)cc1 [Compound 55]

IC50 (Human NPY2 receptor): > 5 µM
IC50 (Human NPY5 Receptor): 0.73 µM
SMILES: O=C(CSc1nc[nH]n1)Nc1ccc(C2CCCCC2)cc1 [Compound 56, N-(4-Cyclohexyl-phenyl)-2-(1H-[1,2,4]triazol-3-ylsultanyl)-acetamide]

IC50 (Human NPY2 receptor): > 5 µM
IC50 (Human NPY5 Receptor): > 1 µM
SMILES: Nc1nc(SCC(=O)Nc2ccc(C3CCCCC3)cc2)n[nH]1 [Compound 57, 2-(-Amino-2H-[1,2,4]triazol-3-ylsulfanyl)-N-(4-cyclohexyl-phenyl)-acetamide]

IC50 (Human NPY2 receptor): > 5 µM
IC50 (Human NPY5 Receptor): > 1 µM
SMILES: Nc1nc(SCC(=O)Nc2ccc(C3CCCCC3)cc2)c2[nH]cnc2n1 [Compound 58, 2-(2-Amino-7H-purin-ylsulfanyl)-N-(4-cyclohexyl-phenyl)-acetamide]

IC50 (Human NPY2 receptor): > 5 µM
IC50 (Human NPY5 Receptor): > 1 µM
SMILES: Nc1nc(SCC(=O)Nc2ccc(C3CCCCC3)cc2)nc2[nH]ncc12 [Compound 59]

IC50 (Human NPY2 receptor): > 5 µM
IC50 (Human NPY5 Receptor): 7.6 µM
SMILES: Nc1n[nH]c(SCC(=O)Nc2ccc(C(=O)c3ccccc3)cc2)n1 [Compound 67, 2-(5-Amino-2H-[1,2,4]triazol-3-ylsulfanyl)-N-(4-benzoyl-phenyl)-acetamide]

IC50 (Human NPY2 receptor): > 5 µM
IC50 (Human NPY5 Receptor): 5 µM
SMILES: Nc1nc(SCC(=O)Nc2ccc(C(=O)c3ccccc3)cc2)c2[nH]cnc2n1 [Compound 68, 2-(2-Amino-7H-purin-ylsulfanyl)-N-(4 benzoyl-phenyl)-acetamide]

More lines, now with the values behind:

SMILES: Cn1ccnc1SCC(=O)Nc1ccc(C(=O)c2ccccc2)cc1 [Compound 9]
IC50 (Human NPY2 receptor): > 5 µM
IC50 (Human NPY5 Receptor): 0.44 µM
inhibition at 10 µM (Rat NPY5 Receptor): 93%

SMILES: O=C(CSc1nc2ccccc2[nH]1)Nc1ccc(C(=O)c2ccccc2)cc1 [Compound 12, 2-(1H-Benzoimidazol-2-ylsulfanyl)-N-(4-benzoyl-phenyl)-acetamide]
IC50 (Human NPY2 receptor): > 5 µM
IC50 (Human NPY5 Receptor): 0.48 µM
inhibition at 10 µM (Rat NPY5 Receptor): 95%

SMILES: O=C(CSc1nc(-c2ccccc2)c(-c2ccccc2)[nH]1)Nc1ccc(C(=O)c2ccccc2)cc1 [Compound 16, N-(4-Benzoyl-phenyl)-2-(4,5-diphenyl-1H-imidazol-2-ylsulfanyl)-acetamide]
IC50 (Human NPY2 receptor): > 5 µM
IC50 (Human NPY5 Receptor): 3.6 µM
inhibition at 10 µM (Rat NPY5 Receptor): 80%

SMILES: O=C(CSc1ccccn1)Nc1ccc(C(=O)c2ccccc2)cc1 [Compound 44, N-(4-Benzoyl-phenyl)-2-(pyridin-2-ylsulfanyl)-acetamide]
IC50 (Human NPY2 receptor): > 5 µM
IC50 (Human NPY5 Receptor): 0.32 µM

SMILES: Cn1nnnc1SCC(=O)Nc1ccc(C(=O)c2ccccc2)cc1 [Compound 45, N-(4-Benzoyl-phenyl)-2-(1-methyl-1H-tetrazol-5-ylsulfanyl)-acetamide]
IC50 (Human NPY2 receptor): > 5 µM
IC50 (Human NPY5 Receptor): 0.17 µM

SMILES: O=C(CSc1cccc[n+]1[O-])Nc1ccc(C(=O)c2ccccc2)cc1 [Compound 46, N-(4-Benzoyl-phenyl)-2-(1-oxy-pyridin-2-ylsulfanyl)-acetamide]
IC50 (Human NPY2 receptor): > 5 µM
IC50 (Human NPY5 Receptor): 0.3 µM

SMILES: O=C(CSc1nc2ccccc2s1)Nc1ccc(C(=O)c2ccccc2)cc1 [Compound 47, 2-(Benzothiazol-2-ylsulfanyl)-N-(4-benzoyl-phenyl)-acetamide]
IC50 (Human NPY2 receptor): > 5 µM
IC50 (Human NPY5 Receptor): 3.8 µM

SMILES: O=C(CSc1nc2ccccc2o1)Nc1ccc(C(=O)c2ccccc2)cc1 [Compound 48, 2-(Benzooxazol-2-ylsulfanyl)-N-(4-benzoyl-phenyl)-acetamide]
IC50 (Human NPY2 receptor): > 5 µM
IC50 (Human NPY5 Receptor): 3 µM

SMILES: O=C(CSc1ncccn1)Nc1ccc(C(=O)c2ccccc2)cc1 [Compound 49, N-(4-Benzoyl-phenyl)-2-(pyrimidin-2-ylsulfanyl)-cetarnide]
IC50 (Human NPY2 receptor): > 5 µM
IC50 (Human NPY5 Receptor): 1.6 µM

SMILES: CCOc1ccc2nc(SCC(=O)Nc3ccc(C(=O)c4ccccc4)cc3)sc2c1 [Compound 60]
IC50 (Human NPY2 receptor): > 5 µM
IC50 (Human NPY5 Receptor): 2.1 µM

SMILES: Nc1nnc(SCC(=O)Nc2ccc(C(=O)c3ccccc3)cc2)s1 [Compound 61]
IC50 (Human NPY2 receptor): > 5 µM
IC50 (Human NPY5 Receptor): 0.51 µM

SMILES: O=C(CSc1nnnn1-c1ccccc1)Nc1ccc(C(=O)c2ccccc2)cc1 [Compound 62, N-(4-Benzoyl-phenyl)-2-(1-phenyl-1H-tetrazol-5-ylsulfanyl)-acetamide]
IC50 (Human NPY2 receptor): > 5 µM
IC50 (Human NPY5 Receptor): 0.3 µM

SMILES: O=C(CSc1ccc(F)cc1)Nc1ccc(C(=O)c2ccccc2)cc1 [Compound 63, N-(4-Benzoyl-phenyl)-2-(4-fluoro-phenylsulfanyl)-acetamide]
IC50 (Human NPY2 receptor): > 5 µM
IC50 (Human NPY5 Receptor): 0.65 µM

SMILES: CC(=O)Nc1ccc(SCC(=O)Nc2ccc(C(=O)c3ccccc3)cc2)cc1 [Compound 64, 2-(-Acetylamino-phenylsulfanyl)-N-(4-benzoyl-phenyl)-acetamide]
IC50 (Human NPY2 receptor): > 5 µM
IC50 (Human NPY5 Receptor): 2.7 µM

SMILES: O=C(CSc1ccc(O)cc1)Nc1ccc(C(=O)c2ccccc2)cc1 [Compound 65]
IC50 (Human NPY2 receptor): > 5 µM
IC50 (Human NPY5 Receptor): 0.97 µM

SMILES: O=C(CSc1nc[nH]n1)Nc1ccc(C(=O)c2ccccc2)cc1 [Compound 66, N-(4-Benzoyl-phenyl)-2-(1H-[1,2,4]triazol-3-ylsulfanyl)-acetamide]
IC50 (Human NPY2 receptor): > 5 µM
IC50 (Human NPY5 Receptor): 1.7 µM

SMILES: Nc1nc(SCC(=O)Nc2ccc(C(=O)c3ccccc3)cc2)nc2[nH]ncc12 [Compound 69, 2-(4-Amino-1H-pyrazolo[3,4-d]pyrimidin-6-ylsulfanyl)-N-(4-benzoyl-phenyl)-acetamide]
IC50 (Human NPY2 receptor): > 5 µM
IC50 (Human NPY5 Receptor): 6.8 µM

SMILES: Nc1nc(SCC(=O)Nc2ccc(C(=O)c3ccccc3)cc2)nc(O)c1N=O [Compound 70, 2-(4-Amino-hydroxy-nitroso-pyrimidin-2-ylsulfanyl)-N-(4-benzoyl-phenyl)-acetamide]
IC50 (Human NPY2 receptor): > 5 µM
IC50 (Human NPY5 Receptor): > 10 µM

SMILES: O=C(CSc1nc2cc(Cl)ccc2s1)Nc1ccc(C(=O)c2ccccc2)cc1 [Compound 71, N-(4-Benzoyl-phenyl)-2-(5-chloro-benzothiazol-2-ylsulfanyl)-acetamide]
IC50 (Human NPY2 receptor): > 5 µM
IC50 (Human NPY5 Receptor): 1.3 µM

SMILES: Cc1cc(C)nc(SCC(=O)Nc2ccc(C(=O)c3ccccc3)cc2)n1 [Compound 72, N-(4-Benzoyl-yl)-2-(4,6-dimethyl-pyrimidin-2-ylsulfanyl)-acetamide]
IC50 (Human NPY2 receptor): > 5 µM
IC50 (Human NPY5 Receptor): 8.4 µM
